Results as given in PubChem BioAssay (NCI).
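GI50 is the concentration that inhibits growth by half. TGI: total growth inhibition.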

Columns and labels:
Assay in all cases: NCI-60 cell line screen, 384-well format
[1] = system: MALME-3M melanoma
[2] = system: SK-MEL-2 melanoma
[3] = system: MCF7 breast
[4] = system: BT-549 breast
[5] = system: UO-31 renal
[6] = system: SN12C renal
[7] = system: NCI-H226 lung
[8] = system: IGROV1 ovarian
[9] = system: RPMI-8226 leukemia
[10] = system: NCI-H322M lung
[11] = system: CAKI-1 renal
[12] = system: K-562 leukemia
[13] = system: SF-295 CNS
[14] = system: OVCAR-8 ovarian
[15] = system: LOX IMVI melanoma
[16] = system: MDA-MB-468 breast
[17] = system: MDA-MB-231 breast
[18] = system: CCRF-CEM leukemia
[19] = system: U251 glioblastoma
[20] = system: SNB-75 CNS
[21] = system: HCT-116 colon
[22] = system: OVCAR-4 ovarian
[23] = system: SF-268 CNS
[24] = system: M14 melanoma
[25] = system: HOP-92 NSCLC
[26] = system: SNB-19 CNS
[27] = system: A498 renal
[28] = system: SF-539 CNS
[29] = system: KM12 colon
[30] = system: NCI-H460 NSCLC
[31] = system: OVCAR-5 ovarian
[32] = system: DU-145 prostate
[33] = system: SK-MEL-5 melanoma
[34] = system: ACHN renal
[35] = system: HL-60(TB) leukemia
[36] = system: RXF 393 renal
[37] = system: OVCAR-3 ovarian
[38] = system: EKVX NSCLC
[39] = system: SK-OV-3 ovarian
[40] = system: MDA-MB-435 melanoma
[41] = system: 786-0 renal
[42] = system: HCC-2998 colon
[43] = system: NCI/ADR-RES ovarian
[44] = system: SR leukemia
[45] = system: A549 NSCLC
[46] = system: COLO 205 colon
[47] = system: HCT-15 colon

Compound `COCc1c(-c2cc3cc(C)cc(OC)c3s2)c2c(N)ncnn2c1CN1CCNC(=O)C1` has a GI50 [1] of 4.55 µM, a TGI [1] of 32.6 µM and a GI50 [2] of 4.38 µM. The TGI [2] was 13.6 µM, the GI50 [3] was 5.56 µM and the TGI [3] was over 100 µM. It also gave a GI50 [4] of 0.385 µM, a TGI [4] of 5.45 µM and a GI50 [5] of 9.39 µM. The TGI [5] was over 100 µM, the GI50 [6] was 7.95 µM and the TGI [6] was over 73.6 µM. For the same compound, the GI50 [7] was 1.26 µM, the TGI [7] was 21.7 µM and the GI50 [8] was 4.19 µM. For the same compound, the TGI [8] was 36.8 µM, the GI50 [9] was 1.87 µM and the TGI [9] was 7.59 µM. For the same compound, the GI50 [10] was 3.89 µM, the TGI [10] was 36.8 µM and the GI50 [11] was 3.41 µM. It also gave a TGI [11] of 15.1 µM, a GI50 [12] of 20.1 µM and a TGI [12] of over 100 µM. The GI50 [13] was 18.2 µM, the TGI [13] was over 100 µM and the GI50 [14] was 17.8 µM. For the same compound, the TGI [14] was over 100 µM, the GI50 [15] was 5.57 µM and the TGI [15] was 25.6 µM. It also gave a GI50 [16] of 2.01 µM, a TGI [16] of 7.39 µM and a GI50 [17] of 5.63 µM. It also gave a TGI [17] of over 72.1 µM, a GI50 [18] of 5.68 µM and a TGI [18] of over 52.5 µM. It also gave a GI50 [19] of 12.1 µM, a TGI [19] of over 100 µM and a GI50 [20] of 1.63 µM. For the same compound, the TGI [20] was 20.5 µM, the GI50 [21] was 7.4 µM and the TGI [21] was over 100 µM. For the same compound, the GI50 [22] was 13.9 µM, the TGI [22] was over 100 µM and the GI50 [23] was 8.67 µM. The TGI [23] was over 81.6 µM, the GI50 [24] was 4.75 µM and the TGI [24] was 41 µM. For the same compound, the GI50 [25] was 2 µM, the TGI [25] was 18.9 µM and the GI50 [26] was 18.5 µM. The TGI [26] was over 100 µM, the GI50 [27] was 3.32 µM and the TGI [27] was 40.5 µM. It also gave a GI50 [28] of 6.08 µM, a TGI [28] of over 58.3 µM and a GI50 [29] of 9.87 µM. For the same compound, the TGI [29] was over 100 µM, the GI50 [30] was 4.62 µM and the TGI [30] was over 96.2 µM. The GI50 [31] was 10.3 µM, the TGI [31] was over 79.5 µM and the GI50 [32] was 6.79 µM. The TGI [32] was over 100 µM, the GI50 [33] was 7.29 µM and the TGI [33] was 31.3 µM. For the same compound, the GI50 [34] was 6.15 µM, the TGI [34] was over 100 µM and the GI50 [35] was 7.53 µM. It also gave a TGI [35] of 21.8 µM, a GI50 [36] of 1.19 µM and a TGI [36] of 8.32 µM. The GI50 [37] was 5.38 µM, the TGI [37] was over 75.2 µM and the GI50 [38] was 5.72 µM. The TGI [38] was over 69.8 µM, the GI50 [39] was 2.4 µM and the TGI [39] was 8.99 µM. It also gave a GI50 [40] of 11.8 µM, a TGI [40] of 72.2 µM and a GI50 [41] of 14.2 µM. The TGI [41] was over 93.2 µM, the GI50 [42] was 19.1 µM and the TGI [42] was over 93.1 µM. The GI50 [43] was over 100 µM, the TGI [43] was over 100 µM and the GI50 [44] was 3.97 µM. The TGI [44] was 12.9 µM, the GI50 [45] was 5.49 µM and the TGI [45] was over 100 µM. For the same compound, the GI50 [46] was 12 µM, the TGI [46] was over 100 µM and the GI50 [47] was 5.39 µM. It also gave a TGI [47] of over 100 µM.
